Assay results as given in patent US10472341B2, “Bicyclic tetrahydrothiazepine derivatives useful for the treatment of neoplastic and/or infectious diseases” (APEIRON BIOLOGICS AG, priority 2015, dated 2019).

Experiments:
non-stimulated PBMCs = assay: Non-stimulated PBMCs: cytokine secretion and signs of T-cell activation; type: cell-based, human
From the text: This is an important finding for compounds that shall selectively act on T cells which have been activated by presence of antigen from pathogens or tumors, but shall not lead to an unwanted general activation of all T cells of a patient.

[1] = tested on: aCD3/aCD28-stimulated human CD4+-T-cells; assay: IL-2 production and activation markers in aCD3/aCD28 stimulated isolated human CD4+-T-cells; type: cell-based; details: IL-2 production at 3 μM compound
In short: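 CD4+ T cells isolated from buffy-coat PBMCs by microbeads were plated in Xvivo medium (1.5*10^5 cells/well) and stimulated with anti-CD3/28 mAbs plus compound. IL-2 measured by ELISA in supernatants at 24 h or 48 h; CD25 and proliferation by flow cytometry, CD69 at 24 h. Activity classes based on IL-2 at 3 μM compound.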

[2] = tested on: CD8 T cells & M21 tumor cells; assay: CD8 T cells from M21-prestimulated PBMCs restimulated with M21 tumor cells, with or without PD-1 blockade; type: cell-based, human
Experimental: For experiments investigating effects of PD-1 blockade, PBMCs were preincubated with 1 h UV-irradiated M21 tumor cells (50000 tumor cells per 1 Mill. PBMCs) for 14 days. […] Compounds and anti-PD-1 antibody (Nivolumab) or control antibody without direct effects on CD8 T cells (Ipilimumab) were added where indicated.
[…] Example 107, no antibody (no Ig), anti-PD-1 antibody (Nivolumab) or control antibody without direct effects on CD8 T cells (Ipilimumab) were included where indicated.

[3] = Ex. 107 0.03 μM, with Ipilimumab
[4] = Ex. 107 0.03 μM, with Nivolumab
[5] = Ex. 107 0.1 μM, with Ipilimumab
[6] = Ex. 107 0.3 μM, with Ipilimumab

Cl.N[C@H]1CS(=O)(=O)c2cc(F)c(C(=O)N[C@H]3CC3(F)F)cc2N(Cc2ccc(Cl)cc2)C1=O (single isomer, unassigned) [Example 107]
cytokine secretion or other signs of T-cell activation (non-stimulated PBMCs): did not enhance cytokine secretion or other signs of T-cell activation
Activity Class CD4+ [1]: A (IL-2 production at 3 μM compound concentration >10 ng/mL)
enhancement of cytokine production ([2]; CD8 T cells in the absence of tumor cells): such effect was not detected in the absence of tumor cells
production of IL-2 and IFN-gamma ([2]; CD8 T cells restimulated with M21 tumor cells): enhanced production of both cytokines specifically upon tumor cell contact
Average Granzyme B ([2]; Ex. 107 0.03 μM, no Ig): 1.971 ng/mL
Average IFN-g ([2]; Ex. 107 0.03 μM, no Ig): 0.059 ng/mL
Average IL-2 ([2]; Ex. 107 0.03 μM, no Ig): 0.048 ng/mL
Average Number of living M21 tumor cells ([2]; Ex. 107 0.03 μM, no Ig): 16433
Average Granzyme B [2, 3]: 1.639 ng/mL
Average IFN-g [2, 3]: 0.057 ng/mL
Average IL-2 [2, 3]: 0.041 ng/mL
Average Number of living M21 tumor cells [2, 3]: 21424
Average Granzyme B [2, 4]: 5.522 ng/mL
Average IFN-g [2, 4]: 0.772 ng/mL
Average IL-2 [2, 4]: 0.105 ng/mL
Average Number of living M21 tumor cells [2, 4]: 5574
Average Granzyme B ([2]; Ex. 107 0.1 μM, no Ig): 3.645 ng/mL
Average IFN-g ([2]; Ex. 107 0.1 μM, no Ig): 0.313 ng/mL
Average IL-2 ([2]; Ex. 107 0.1 μM, no Ig): 0.106 ng/mL
Average Number of living M21 tumor cells ([2]; Ex. 107 0.1 μM, no Ig): 9029
Average Granzyme B [2, 5]: 3.905 ng/mL
Average IFN-g [2, 5]: 0.363 ng/mL
Average IL-2 [2, 5]: 0.100 ng/mL
Average Number of living M21 tumor cells [2, 5]: 10688
Average Granzyme B ([2]; Ex. 107 0.1 μM, with Nivolumab): 9.246 ng/mL
Average IFN-g ([2]; Ex. 107 0.1 μM, with Nivolumab): 2.282 ng/mL
Average IL-2 ([2]; Ex. 107 0.1 μM, with Nivolumab): 0.258 ng/mL
Average Number of living M21 tumor cells ([2]; Ex. 107 0.1 μM, with Nivolumab): 3361
Average Granzyme B ([2]; Ex. 107 0.3 μM, no Ig): 5.469 ng/mL
Average IFN-g ([2]; Ex. 107 0.3 μM, no Ig): 1.114 ng/mL
Average IL-2 ([2]; Ex. 107 0.3 μM, no Ig): 0.259 ng/mL
Average Number of living M21 tumor cells ([2]; Ex. 107 0.3 μM, no Ig): 3822
Average Granzyme B [2, 6]: 6.001 ng/mL
Average IFN-g [2, 6]: 1.098 ng/mL
Average IL-2 [2, 6]: 0.222 ng/mL
Average Number of living M21 tumor cells [2, 6]: 4339
Average Granzyme B ([2]; Ex. 107 0.3 μM, with Nivolumab): 12.040 ng/mL
Average IFN-g ([2]; Ex. 107 0.3 μM, with Nivolumab): 4.565 ng/mL
Average IL-2 ([2]; Ex. 107 0.3 μM, with Nivolumab): 0.590 ng/mL
Average Number of living M21 tumor cells ([2]; Ex. 107 0.3 μM, with Nivolumab): 1648
Average Granzyme B ([2]; Ex. 107 1 μM, no Ig): 7.246 ng/mL
Average IFN-g ([2]; Ex. 107 1 μM, no Ig): 1.963 ng/mL
Average IL-2 ([2]; Ex. 107 1 μM, no Ig): 0.389 ng/mL
Average Number of living M21 tumor cells ([2]; Ex. 107 1 μM, no Ig): 2642
Average Granzyme B ([2]; Ex. 107 1 μM, with Ipilimumab): 7.906 ng/mL
Average IFN-g ([2]; Ex. 107 1 μM, with Ipilimumab): 2.350 ng/mL
Average IL-2 ([2]; Ex. 107 1 μM, with Ipilimumab): 0.478 ng/mL
Average Number of living M21 tumor cells ([2]; Ex. 107 1 μM, with Ipilimumab): 2104
Average Granzyme B ([2]; Ex. 107 1 μM, with Nivolumab): 12.985 ng/mL
Average IFN-g ([2]; Ex. 107 1 μM, with Nivolumab): 5.846 ng/mL
Average IL-2 ([2]; Ex. 107 1 μM, with Nivolumab): 0.954 ng/mL
Average Number of living M21 tumor cells ([2]; Ex. 107 1 μM, with Nivolumab): 1574
Average Granzyme B ([2]; Ex. 107 3 μM, no Ig): 8.208 ng/mL
Average IFN-g ([2]; Ex. 107 3 μM, no Ig): 2.469 ng/mL
Average IL-2 ([2]; Ex. 107 3 μM, no Ig): 0.523 ng/mL
Average Number of living M21 tumor cells ([2]; Ex. 107 3 μM, no Ig): 2075
Average Granzyme B ([2]; Ex. 107 3 μM, with Ipilimumab): 9.283 ng/mL
Average IFN-g ([2]; Ex. 107 3 μM, with Ipilimumab): 2.745 ng/mL
Average IL-2 ([2]; Ex. 107 3 μM, with Ipilimumab): 0.555 ng/mL
Average Number of living M21 tumor cells ([2]; Ex. 107 3 μM, with Ipilimumab): 2083
Average Granzyme B ([2]; Ex. 107 3 μM, with Nivolumab): 14.403 ng/mL
Average IFN-g ([2]; Ex. 107 3 μM, with Nivolumab): 6.041 ng/mL
Average IL-2 ([2]; Ex. 107 3 μM, with Nivolumab): 1.285 ng/mL
Average Number of living M21 tumor cells ([2]; Ex. 107 3 μM, with Nivolumab): 1429
Average Granzyme B ([2]; Ex. 107 10 μM, no Ig): 8.378 ng/mL
Average IFN-g ([2]; Ex. 107 10 μM, no Ig): 3.113 ng/mL
Average IL-2 ([2]; Ex. 107 10 μM, no Ig): 0.643 ng/mL
Average Number of living M21 tumor cells ([2]; Ex. 107 10 μM, no Ig): 2000
Average Granzyme B ([2]; Ex. 107 10 μM, with Ipilimumab): 8.227 ng/mL
Average IFN-g ([2]; Ex. 107 10 μM, with Ipilimumab): 3.171 ng/mL
Average IL-2 ([2]; Ex. 107 10 μM, with Ipilimumab): 0.669 ng/mL
Average Number of living M21 tumor cells ([2]; Ex. 107 10 μM, with Ipilimumab): 2033
Average Granzyme B ([2]; Ex. 107 10 μM, with Nivolumab): 13.079 ng/mL
Average IFN-g ([2]; Ex. 107 10 μM, with Nivolumab): 6.729 ng/mL
Average IL-2 ([2]; Ex. 107 10 μM, with Nivolumab): 1.596 ng/mL
Average Number of living M21 tumor cells ([2]; Ex. 107 10 μM, with Nivolumab): 1799
reduction of viable tumor cells ([2]; example 107 in the presence of Nivolumab): even more pronounced and reached with lower compound concentrations in the presence of Nivolumab
enhancement of cytokine production ([2]; example 107 together with anti-PD-1 antibody (Nivolumab), CD8 T cells & M21): the enhancement of cytokine production was synergistic, i.e. more than additive
granzyme release upon tumor-cell contact ([2]; example 107 with PD-1 blockade, CD8 T cells & M21): mediated an synergistic enhancement of the cytotoxic effector granzyme release upon tumor-cell contact
viable tumor cells ([2]; immune cell cocultures with M21 tumor cells): strong reduction of viable tumor cells
